Experimental data as given in patent publication US9321762B2, “Quinazoline compounds, method for preparing the same and use thereof” (DEVELOPMENT CENTER FOR BIOTECHNOLOGY, priority 2013, dated 2016).
Like-named read-outs stand apart in the source and are kept apart here.

Experiments:
EGFR kinase = target: T1, EGFR kinase (Homo sapiens, UniProt P00533); experiment: EGFR radiometric kinase assay; format: biochemical; conditions: 100 μM ATP, read-out: Inhibition activity, IC50 EGFR
T1 construct: EGFR kinase domain alone, Millipore; purchased Millipore
Procedure: (§1) The inhibitory activity against VEGFR2 or EGFR was determined by radiometric kinase assay. The experimental condition for VEGFR2 kinase assay was 6.25 ng of recombinant VEGFR2 kinase (VEGFR2 kinase domain alone, Millipore), 5 μg of substrate Poly(Glu-Tyr) (4:1, Sigma), kinase reaction buffer (20 mM MOPS pH 7.0, 1 mM EDTA, 5% glycerol, 0.01% Brij-35, 0.1% β-mercaptoethanol, 1 mg/mL BSA, 100 μM ATP, and 0.1 μCi per well [^33P] ATP (specific activity 3000 Ci/mmol, PerkinElmer)), and the test compound (diluted with 4% DMSO) or DMSO alone (as a control) in a final volume of 25 μL. Reactions were incubated at 30° C. for 30 min and stopped by adding 3% phosphoric acid, harvested onto a 96-well GF/B UniFilter (PerkinElmer) using a unifilter harvester (PerkinElmer), and counted with a TopCount microplate scintillation counter (PerkinElmer).
The experimental condition for EGFR kinase assay was 25 ng of EGFR kinase (EGFR kinase domain alone, Millipore), 3 μg of the substrate poly(Glu-Tyr), (Sigma), kinase reaction buffer (10 mM MOPS pH 7.0, 0.3 mM EDTA, 0.5% glycerol, 0.001% Brij-35, 10 mM MnCl2, 0.1 mg/ml BSA, 100 μM ATP, and 0.1 μCi per well [^33P]ATP (specific activity 3000 Ci/mmol, PerkinElmer)), and the test compound (diluted with 4% DMSO) or DMSO (as a control) in a final volume of 25 μL. Reactions were incubated at 30° C. for 30 min and stopped by adding 3% phosphoric acid, harvested onto a 96-well GF/B UniFilter (PerkinElmer) using a unifilter harvester (PerkinElmer), and counted with a TopCount microplate scintillation counter (PerkinElmer).
(§2) Results of inhibition activity against VEGFR2 and EGFR kinases by the selected compounds, which have IC50 values on B-Raf kinase <300 nM, are summarized in Table 6.

B-Raf kinase = target: T2, B-Raf kinase (Homo sapiens, UniProt P15056); experiment: B-Raf kinase assay ([33P] incorporation into MEK1(K97R)); format: biochemical; conditions: class symbols; 8 μM ATP; read-out: IC50 against B-Raf kinase
T2 construct: purchased Upstate Biotechnology
Procedure: (§3) Inhibition of kinase activity by a test compound disclosed herein was estimated by quantifying the amount of [^33P] incorporation of a substrate in the presence of the test compound. Standard assay conditions were 5 ng of recombinant B-Raf kinase (Upstate Biotechnology) with 500 ng MEK1(K97R) in assay buffer (8 μM ATP, 0.5 μCi [^33P]ATP (specific activity 3000 Ci/mmol, PerkinElmer), 50 mM Tris/HCl (pH7.5), and 1 mM EGTA, 1 mM Na3VO4, 1% 2-mercaptoethanol, 0.1% Brij 35, and 0.2 mg/ml BSA) in a final volume of 25 μL. Reactions were incubated at 30° C. for 30 min and stopped by adding 3% phosphoric acid, harvested onto a 96-well GF/B UniFilter (PerkinElmer) using a unifilter harvester (PerkinElmer), and counted with a TopCount microplate scintillation counter (PerkinElmer). The IC50 values of inhibitors were determined after carrying out assays at 3-fold serially diluted concentrations of each compound in duplication. The results were analyzed using linear regression software (GraphPad Prism 4; GraphPad Software Inc.).

C-Raf kinase = target: T3, C-Raf kinase (Homo sapiens, UniProt P04049); experiment: C-Raf kinase assay ([33P] incorporation into MEK1(K97R)); format: biochemical; conditions: class symbols; 8 μM ATP; read-out: IC50 against C-Raf kinase
T3 construct: purchased Upstate Biotechnology
Procedure: as §3, with “were 2” for “were 5”, “recombinant C-Raf” for “recombinant B-Raf”, “ng MEK1 (K97R)” for “ng MEK1(K97R)”, “μCi [^33P] ATP” for “μCi [^33P]ATP”, “mg/ml BSA), and the test compound (diluted with 4% DMSO) or DMSO alone (as a control)” for “mg/ml BSA)”

B-Raf(V600E) kinase = target: T4, B-Raf(V600E) kinase (Homo sapiens, UniProt P15056, V600E); experiment: B-Raf(V600E) kinase assay ([33P] incorporation into MEK1(K97R)); format: biochemical; conditions: class symbols; 8 μM ATP; read-out: IC50 against B-Raf(V600E) kinase
T4 construct: purchased Upstate Biotechnology
Procedure: as §3, with “B-Raf(V600E)” for “B-Raf”, “MEK1 (K97R)” for “MEK1(K97R)”, “[^33P] ATP” for “[^33P]ATP”, “BSA), and the test compound (diluted with 4% DMSO) or DMSO alone (as a control)” for “BSA)”

[1] = tested on: A375 melanoma cells and COLO205 colon cancer cells; experiment: Cell proliferation assay (CellTiter-96); format: cell-based; conditions: Homo sapiens; A375 or COLO205, 72 hours treatment; read-out: Cytotoxicity IC50 for A375 or COLO205
Procedure: The anti-proliferative activities of compounds of formula (I) against B-Raf(V600E) mutant human cancer cell lines, A375 melanoma cells and COLO205 colon cancer cells, were measured using the CellTiter™-96 assay kit (Promega) following the manufacturer's instructions. In brief, the cells were maintained in DMEM containing 10% FCS and incubated at 37° C. in 5% CO2 atmosphere. Cells were plated at a density of 2,000 cells/well on a 96-well plate and incubated for 24 h. Then, these cells were treated with different concentrations of the test compounds and incubated for another 72 hours. At the end of the incubation, CellTiter™-96 Aqueous One Solution Reagent (Promega) was added and incubated for another 4.0 hours. Cell viability was determined by measuring absorbance at 490 nm using EMax® microplate reader (Molecular Devices). Data were processed and analyzed using GraphPad Prism.

VEGFR2 kinase = target: T5, VEGFR2 kinase (Homo sapiens, UniProt P35968); experiment: VEGFR2 radiometric kinase assay; format: biochemical; conditions: given as bound; 100 μM ATP; read-out: Inhibition activity, IC50 VEGFR2
T5 construct: VEGFR2 kinase domain alone, Millipore; purchased Millipore
Procedure: as §1, §2

T5 sequence (P35968 834-1162 limits assumed): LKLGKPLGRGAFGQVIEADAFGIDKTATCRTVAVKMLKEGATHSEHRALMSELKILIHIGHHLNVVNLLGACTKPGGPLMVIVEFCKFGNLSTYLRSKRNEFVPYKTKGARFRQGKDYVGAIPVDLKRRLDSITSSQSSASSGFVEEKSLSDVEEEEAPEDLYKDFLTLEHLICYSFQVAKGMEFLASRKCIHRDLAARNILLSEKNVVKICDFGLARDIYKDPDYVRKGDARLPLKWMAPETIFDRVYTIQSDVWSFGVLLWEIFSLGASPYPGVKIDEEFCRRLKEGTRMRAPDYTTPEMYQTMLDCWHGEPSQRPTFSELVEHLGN
T1 sequence (P00533 712-979 limits assumed): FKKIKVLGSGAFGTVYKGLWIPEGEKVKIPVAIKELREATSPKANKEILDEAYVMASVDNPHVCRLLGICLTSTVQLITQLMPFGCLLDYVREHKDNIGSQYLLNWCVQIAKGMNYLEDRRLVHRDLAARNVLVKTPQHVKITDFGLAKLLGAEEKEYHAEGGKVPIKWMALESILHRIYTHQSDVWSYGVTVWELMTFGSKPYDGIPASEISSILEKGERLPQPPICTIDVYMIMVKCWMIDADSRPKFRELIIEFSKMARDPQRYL
T4 sequence (P15056 whole entry V600E): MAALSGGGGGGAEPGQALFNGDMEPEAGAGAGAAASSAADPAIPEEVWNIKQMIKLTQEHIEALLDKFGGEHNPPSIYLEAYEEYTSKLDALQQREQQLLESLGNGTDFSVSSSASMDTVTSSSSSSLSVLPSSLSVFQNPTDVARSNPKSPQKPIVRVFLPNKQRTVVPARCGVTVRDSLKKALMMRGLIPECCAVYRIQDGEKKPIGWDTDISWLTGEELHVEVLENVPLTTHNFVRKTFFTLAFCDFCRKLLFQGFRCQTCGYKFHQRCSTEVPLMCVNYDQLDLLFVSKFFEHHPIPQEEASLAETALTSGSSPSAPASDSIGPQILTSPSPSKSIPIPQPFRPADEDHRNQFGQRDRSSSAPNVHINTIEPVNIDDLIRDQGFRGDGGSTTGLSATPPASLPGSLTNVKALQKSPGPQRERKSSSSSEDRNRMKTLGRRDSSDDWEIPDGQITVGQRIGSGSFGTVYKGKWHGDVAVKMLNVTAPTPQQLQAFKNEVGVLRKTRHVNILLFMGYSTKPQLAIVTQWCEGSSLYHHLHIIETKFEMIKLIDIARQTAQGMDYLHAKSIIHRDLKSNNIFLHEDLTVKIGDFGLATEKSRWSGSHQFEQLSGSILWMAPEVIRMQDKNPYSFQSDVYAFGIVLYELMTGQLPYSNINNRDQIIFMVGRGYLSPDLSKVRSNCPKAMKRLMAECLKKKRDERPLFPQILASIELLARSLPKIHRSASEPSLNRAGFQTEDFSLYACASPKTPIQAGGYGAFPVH
T3 sequence (P04049 whole entry): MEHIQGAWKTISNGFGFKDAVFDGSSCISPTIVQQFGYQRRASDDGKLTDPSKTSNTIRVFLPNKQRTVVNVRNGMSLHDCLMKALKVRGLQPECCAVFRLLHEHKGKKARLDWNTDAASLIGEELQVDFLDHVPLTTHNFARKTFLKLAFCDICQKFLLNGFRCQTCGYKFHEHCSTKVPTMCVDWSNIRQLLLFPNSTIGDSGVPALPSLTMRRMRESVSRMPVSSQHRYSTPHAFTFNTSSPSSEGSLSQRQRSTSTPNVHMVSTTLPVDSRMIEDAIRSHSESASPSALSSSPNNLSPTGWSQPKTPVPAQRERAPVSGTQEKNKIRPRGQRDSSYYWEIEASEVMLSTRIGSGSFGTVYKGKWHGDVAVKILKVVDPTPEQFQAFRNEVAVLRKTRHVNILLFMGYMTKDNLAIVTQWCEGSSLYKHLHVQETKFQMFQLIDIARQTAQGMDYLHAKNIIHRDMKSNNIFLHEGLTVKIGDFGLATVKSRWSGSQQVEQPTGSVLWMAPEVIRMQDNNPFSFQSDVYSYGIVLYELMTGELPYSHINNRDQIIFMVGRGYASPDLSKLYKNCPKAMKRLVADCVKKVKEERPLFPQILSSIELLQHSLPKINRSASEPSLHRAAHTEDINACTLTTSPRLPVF
T2 sequence (P15056 whole entry): as the sequence (P15056 whole entry V600E) above, with E600V counted along it

With `CCCS(=O)(=O)Nc1ccc(F)c(Nc2ncnc3cc(OC)c(-c4cccnc4F)cc23)c1F` [compound 28, N-(2,4-difluoro-3-(6-(2-fluoropyridin-3-yl)-7-methoxyquinazolin-4-ylamino)phenyl)propane-1-sulfonamide] the IC50 (EGFR kinase; class symbols) was 300 to 1000 nM, the IC50 (B-Raf kinase) was under 300 nM and the IC50 (C-Raf kinase) was under 300 nM. The IC50 (B-Raf(V600E) kinase) was under 300 nM, the IC50 [1] was under 2000 nM and the IC50 (VEGFR2 kinase) was over 3000 nM.
With `CCCS(=O)(=O)Nc1ccc(F)c(Nc2ccnc3ccc(-c4ccncc4)cc23)c1F` [compound 14, N-(2,4-difluoro-3-(6-(pyridin-4-yl)quinolin-4-ylamino)phenyl)propane-1-sulfonamide] the IC50 (EGFR kinase; class symbols) was 1000 to 3000 nM, the IC50 (B-Raf kinase) was under 300 nM and the IC50 (C-Raf kinase) was under 300 nM. For the same compound, the IC50 (B-Raf(V600E) kinase) was under 300 nM, the IC50 [1] was under 2000 nM and the IC50 (VEGFR2 kinase) was over 3000 nM.
`CCCS(=O)(=O)Nc1ccc(F)c(Nc2ncnc3ccc(-c4ccnc(OCCN(C)C)c4)cc23)c1F` [compound 45, N-(3-(6-(2-(2-(dimethylamino)ethoxy)-pyridin-4-yl)quinazolin-4-ylamino)-2,4-difluorophenyl)propane-1-sulfonamide] showed an IC50 (EGFR kinase; given as bound) of over 3000 nM, an IC50 (B-Raf kinase) of under 300 nM and an IC50 (C-Raf kinase) of 1000 to 10000 nM. It also gave an IC50 (B-Raf(V600E) kinase) of under 300 nM, an IC50 [1] of under 2000 nM and an IC50 (VEGFR2 kinase) of over 3000 nM.
In the case of `CCCCS(=O)(=O)Nc1ccc(F)c(Nc2ncnc3ccc(-c4cccnc4F)cc23)c1F` [compound 18, N-(2,4-difluoro-3-(6-(2-fluoropyridin-3-yl)quinazolin-4-ylamino)phenyl)butane-1-sulfonamide], the IC50 (EGFR kinase; given as bound) is reported as over 3000 nM, the IC50 (B-Raf kinase) is reported as under 300 nM and the IC50 (C-Raf kinase) is reported as under 300 nM. For the same compound, the IC50 (B-Raf(V600E) kinase) was under 300 nM, the IC50 [1] was under 2000 nM and the IC50 (VEGFR2 kinase) was over 3000 nM.
Work on `CCCS(=O)(=O)Nc1ccc(F)c(Nc2ncnc3ccc(-c4cccc(C(F)(F)F)n4)cc23)c1F` [compound 62, N-(2,4-difluoro-3-(6-(6-(trifluoromethyl)pyridin-2-yl)quinazolin-4-ylamino)phenyl)propane-1-sulfonamide] yielded an IC50 (EGFR kinase; class symbols) of 300 to 1000 nM, an IC50 (B-Raf kinase) of under 300 nM and an IC50 (C-Raf kinase) of under 300 nM. The IC50 (B-Raf(V600E) kinase) was under 300 nM, the IC50 [1] was under 2000 nM and the IC50 (VEGFR2 kinase) was over 3000 nM.
`CCCS(=O)(=O)Nc1ccc(F)c(Nc2ncnc3ccc(-c4cnc(OC)c([N+](=O)[O-])c4)cc23)c1F` [compound 58, N-(2,4-difluoro-3-(6-(6-methoxy-5-nitropyridin-3-yl)quinazolin-4-ylamino)phenyl)propane-1-sulfonamide] was tested, and the IC50 (EGFR kinase; given as bound) was over 3000 nM, the IC50 (B-Raf kinase) was under 300 nM and the IC50 (C-Raf kinase) was under 300 nM. It also gave an IC50 (B-Raf(V600E) kinase) of under 300 nM, an IC50 [1] of under 2000 nM and an IC50 (VEGFR2 kinase) of over 3000 nM.
`O=S(=O)(CCCF)Nc1ccc(F)c(Nc2ncnc3ccc(-c4cccnc4F)cc23)c1F` [compound 44, N-(2,4-difluoro-3-(6-(2-fluoropyridin-3-yl)quinazolin-4-ylamino)phenyl)-3-fluoropropane-1-sulfonamide] gave an IC50 (EGFR kinase; given as bound) of over 3000 nM, an IC50 (B-Raf kinase) of under 300 nM and an IC50 (C-Raf kinase) of under 300 nM. The IC50 (B-Raf(V600E) kinase) was under 300 nM, the IC50 [1] was under 2000 nM and the IC50 (VEGFR2 kinase) was over 3000 nM.
In the case of `CCCS(=O)(=O)Nc1ccc(F)c(Nc2ncnc3ccc(-c4cccc(OC)n4)cc23)c1F` [compound 37, N-(2,4-difluoro-3-(6-(6-methoxypyridin-2-yl)quinazolin-4-ylamino)phenyl)propane-1-sulfonamide], the IC50 (EGFR kinase; class symbols) is reported as 300 to 1000 nM, the IC50 (B-Raf kinase) is reported as under 300 nM and the IC50 (C-Raf kinase) is reported as 300 to 1000 nM. It also gave an IC50 (B-Raf(V600E) kinase) of under 300 nM, an IC50 [1] of under 2000 nM and an IC50 (VEGFR2 kinase) of over 3000 nM.
With `CCCS(=O)(=O)Nc1ccc(F)c(Nc2ncnc3ccc(-c4cccc(OCCN(C)C)n4)cc23)c1F` [compound 39, N-(3-(6-(6-(2-(dimethylamino)ethoxy)-pyridin-2-yl)quinazolin-4-ylamino)-2,4-difluorophenyl)propane-1-sulfonamide] the IC50 (EGFR kinase; given as bound) was over 3000 nM, the IC50 (B-Raf kinase) was under 300 nM and the IC50 (C-Raf kinase) was 1000 to 10000 nM. For the same compound, the IC50 (B-Raf(V600E) kinase) was under 300 nM, the IC50 [1] was under 2000 nM and the IC50 (VEGFR2 kinase) was over 3000 nM.
`CCCS(=O)(=O)Nc1ccc(F)c(Nc2ncnc3ccc(-c4ccc(=O)[nH]c4)cc23)c1F` [compound 32, N-(2,4-difluoro-3-(6-(6-oxo-1,6-dihydropyridin-3-yl)quinazolin-4-ylamino)phenyl)propane-1-sulfonamide] showed an IC50 (EGFR kinase; given as bound) of over 3000 nM, an IC50 (B-Raf kinase) of under 300 nM and an IC50 (C-Raf kinase) of 300 to 1000 nM. The IC50 (B-Raf(V600E) kinase) was under 300 nM, the IC50 [1] was under 2000 nM and the IC50 (VEGFR2 kinase) was over 3000 nM.
`CCCS(=O)(=O)Nc1ccc(F)c(Nc2ncnc3ccc(-c4cccnc4Cl)cc23)c1F` [compound 57, N-(3-(6-(2-chloropyridin-3-yl)-quinazolin-4-ylamino)-2,4-difluorophenyl)propane-1-sulfonamide] showed an IC50 (EGFR kinase; given as bound) of over 3000 nM, an IC50 (B-Raf kinase) of under 300 nM and an IC50 (C-Raf kinase) of under 300 nM. For the same compound, the IC50 (B-Raf(V600E) kinase) was under 300 nM, the IC50 [1] was under 2000 nM and the IC50 (VEGFR2 kinase) was over 3000 nM.
`CCCS(=O)(=O)Nc1ccc(F)c(Nc2ncnc3ccc(-c4ccncc4)cc23)c1F` [compound 12, N-(2,4-difluoro-3-(6-(pyridin-4-yl)-quinazolin-4-ylamino)phenyl)propane-1-sulfonamide] was tested, and the IC50 (EGFR kinase; class symbols) was 300 to 1000 nM, the IC50 (B-Raf kinase) was under 300 nM and the IC50 (C-Raf kinase) was under 300 nM. For the same compound, the IC50 (B-Raf(V600E) kinase) was under 300 nM, the IC50 [1] was under 2000 nM and the IC50 (VEGFR2 kinase) was over 3000 nM.
